The conditions of the series: 101.33 kPa, Liquid, Shanghai Precision & Scientific Instrument Co., LTD (DDS-307).

Numbers after ± are expanded uncertainties.

On to `CCCCO` [butan-1-ol], for which the electrical conductivity by setting is: (298.15 K) 4.4e-05 ± 2.6e-06 S/m; (303.15 K) 5.55e-05 ± 3.3e-06 S/m; (308.15 K) 6.58e-05 ± 4e-06 S/m; (313.15 K) 6.9e-05 ± 4.1e-06 S/m; (318.15 K) 8e-05 ± 4.8e-06 S/m.

Consider `CCO` [ethanol], for which the electrical conductivity (298.15 K) came to 0.000413 ± 2.5e-05 S/m; the electrical conductivity (303.15 K) worked out at 0.000504 ± 3e-05 S/m; the electrical conductivity (308.15 K) worked out at 0.000584 ± 3.5e-05 S/m; the electrical conductivity (313.15 K) turned out to be 0.000644 ± 3.9e-05 S/m; the electrical conductivity (318.15 K) was 0.000711 ± 4.3e-05 S/m.

`CC(C)O` [propan-2-ol]: the electrical conductivity by setting is: (298.15 K) 5.2e-05 ± 3.1e-06 S/m; (303.15 K) 7e-05 ± 4.2e-06 S/m; (308.15 K) 7.5e-05 ± 4.5e-06 S/m; (313.15 K) 8.08e-05 ± 4.9e-06 S/m; (318.15 K) 8.43e-05 ± 5.1e-06 S/m.

For `O` [water], the electrical conductivity was found to be 0.00287 ± 0.00017 S/m (303.15 K), 0.00323 ± 0.00019 S/m (308.15 K), 0.00349 ± 0.00021 S/m (313.15 K) and 0.00375 ± 0.00022 S/m (318.15 K).

(Values after the NIST ThermoML archive (doi:10.1021/je100361s).)
